According to PubChem BioAssay (NCI):
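48-hour exposure; five concentrations; linearly interpolated endpoints. Definition used: TGI = concentration required for complete inhibition of growth.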

What was measured:
Assay in all cases: DTP human tumour cell line panel, 48 h
[1] = tested on: HT29 colon
[2] = tested on: NCI-H522 lung
[3] = tested on: LXFL 529 NSCLC
[4] = tested on: RPMI-8226 leukemia
[5] = tested on: SW-620 colon
[6] = tested on: ACHN renal
[7] = tested on: SK-MEL-28 melanoma
[8] = tested on: M19-MEL melanoma
[9] = tested on: COLO 205 colon
[10] = tested on: HOP-92 NSCLC
[11] = tested on: M14 melanoma
[12] = tested on: K-562 leukemia
[13] = tested on: SK-MEL-5 melanoma
[14] = tested on: IGROV1 ovarian
[15] = tested on: TK-10 renal
[16] = tested on: NCI-H226 lung
[17] = tested on: 786-0 renal
[18] = tested on: OVCAR-5 ovarian
[19] = tested on: CAKI-1 renal
[20] = tested on: HCC-2998 colon
[21] = tested on: OVCAR-4 ovarian
[22] = tested on: HCT-116 colon
[23] = tested on: SF-295 CNS
[24] = tested on: SR leukemia
[25] = tested on: DMS 114 small cell lung
[26] = tested on: SNB-19 CNS
[27] = tested on: HL-60(TB) leukemia
[28] = tested on: DLD-1 colon
[29] = tested on: HCT-15 colon
[30] = tested on: SF-268 CNS
[31] = tested on: KM20L2 colon
[32] = tested on: SK-MEL-2 melanoma
[33] = tested on: U251 CNS
[34] = tested on: OVCAR-3 ovarian
[35] = tested on: UACC-62 melanoma
[36] = tested on: MALME-3M melanoma
[37] = tested on: HOP-62 NSCLC
[38] = tested on: CCRF-CEM leukemia
[39] = tested on: NCI-H460 lung
[40] = tested on: SNB-75 CNS
[41] = tested on: UACC-257 melanoma
[42] = tested on: MOLT-4 leukemia
[43] = tested on: UO-31 renal
[44] = tested on: OVCAR-8 ovarian
[45] = tested on: SF-539 CNS
[46] = tested on: A549 NSCLC
[47] = tested on: KM12 colon
[48] = tested on: DMS 273 small cell lung
[49] = tested on: NCI-H23 lung
[50] = tested on: T-47D breast
[51] = tested on: MDA-MB-231 breast
[52] = tested on: HS 578T breast
[53] = tested on: MDA-MB-435
[54] = tested on: PC-3 prostate
[55] = tested on: BT-549 breast
[56] = tested on: SK-OV-3 ovarian
[57] = tested on: NCI/ADR-RES ovarian
[58] = tested on: EKVX NSCLC
[59] = tested on: RXF 393 renal
[60] = tested on: SN12C renal
[61] = tested on: MCF7 breast
[62] = tested on: MDA-N
[63] = tested on: DU-145 prostate
[64] = tested on: LOX IMVI melanoma
[65] = tested on: A498 renal

SMILES: c1csc(C[N+]23CN4CN(CN(C4)C2)C3)c1
- TGI [1]: > 100 µM
- TGI [2]: > 100 µM
- TGI [3]: 43.1 µM
- TGI [4]: 58.7 µM
- TGI [5]: 90.7 µM
- TGI [6]: > 100 µM
- TGI [7]: > 100 µM
- TGI [8]: 56 µM
- TGI [9]: 40.8 µM
- TGI [10]: 44.9 µM
- TGI [11]: 32.2 µM
- TGI [12]: 48.8 µM
- TGI [13]: 35.8 µM
- TGI [14]: 70.2 µM
- TGI [15]: 79.5 µM
- TGI [16]: > 100 µM
- TGI [17]: 58.8 µM
- TGI [18]: 67.3 µM
- TGI [19]: 59.5 µM
- TGI [20]: 34.1 µM
- TGI [21]: 49 µM
- TGI [22]: > 100 µM
- TGI [23]: > 100 µM
- TGI [24]: 35.9 µM
- TGI [25]: 40.2 µM
- TGI [26]: > 100 µM
- TGI [27]: 33.2 µM
- TGI [28]: > 100 µM
- TGI [29]: 77.2 µM
- TGI [30]: > 100 µM
- TGI [31]: 55.7 µM
- TGI [32]: 37.3 µM
- TGI [33]: 45.7 µM
- TGI [34]: > 100 µM
- TGI [35]: 47.5 µM
- TGI [36]: 33.2 µM
- TGI [37]: 46.6 µM
- TGI [38]: 44.9 µM
- TGI [39]: 49.2 µM
- TGI [40]: > 100 µM
- TGI [41]: > 100 µM
- TGI [42]: 44.6 µM
- TGI [43]: > 100 µM
- TGI [44]: 74.9 µM
- TGI [45]: > 100 µM
- TGI [46]: 87 µM
- TGI [47]: > 100 µM
- TGI [48]: 41.8 µM
- TGI [49]: > 100 µM

SMILES: Cc1cc(C)c(NC(=S)NC(=O)c2ccccc2)cc1C
- TGI [1]: > 100 µM
- TGI [50]: > 100 µM
- TGI [51]: > 100 µM
- TGI [2]: > 100 µM
- TGI [4]: > 100 µM
- TGI [5]: > 100 µM
- TGI [6]: > 100 µM
- TGI [52]: > 100 µM
- TGI [7]: > 100 µM
- TGI [9]: > 100 µM
- TGI [10]: > 100 µM
- TGI [11]: > 100 µM
- TGI [12]: > 100 µM
- TGI [13]: > 100 µM
- TGI [14]: > 100 µM
- TGI [15]: > 100 µM
- TGI [53]: > 100 µM
- TGI [16]: > 100 µM
- TGI [17]: > 100 µM
- TGI [18]: > 100 µM
- TGI [19]: > 100 µM
- TGI [20]: > 100 µM
- TGI [54]: > 100 µM
- TGI [21]: > 100 µM
- TGI [22]: > 100 µM
- TGI [55]: > 100 µM
- TGI [56]: > 100 µM
- TGI [23]: > 100 µM
- TGI [24]: > 100 µM
- TGI [57]: > 100 µM
- TGI [26]: > 100 µM
- TGI [58]: > 100 µM
- TGI [59]: > 100 µM
- TGI [27]: > 100 µM
- TGI [60]: > 100 µM
- TGI [29]: > 100 µM
- TGI [30]: > 100 µM
- TGI [32]: > 100 µM
- TGI [61]: > 100 µM
- TGI [33]: > 100 µM
- TGI [34]: > 100 µM
- TGI [35]: > 100 µM
- TGI [62]: > 100 µM
- TGI [36]: > 100 µM
- TGI [37]: > 100 µM
- TGI [38]: > 100 µM
- TGI [39]: > 100 µM
- TGI [63]: > 100 µM
- TGI [64]: > 100 µM
- TGI [40]: > 100 µM
- TGI [41]: > 100 µM
- TGI [42]: > 100 µM
- TGI [43]: > 100 µM
- TGI [44]: > 100 µM
- TGI [45]: > 100 µM
- TGI [46]: > 100 µM
- TGI [47]: > 100 µM
- TGI [65]: > 100 µM
- TGI [49]: > 100 µM
